Entries after “also recorded” stand apart in the source; their conditions may differ.
Assays:
[1] = test system: precontracted aortic vessel; assay: Relaxation of norepinephrine-precontracted rabbit aortic rings; assay type: tissue-based
Procedure: New Zealand white female rabbits weighing 3-4 kilograms were anesthetized with sodium pentobarbital, 13 milligram per kilogram. Descending thoracic aorta were isolated, the vessels were cleaned of adherent tissue and the endothelium was removed by a gentle rubbing with a cotton-tipped applicator inserted into the lumen. The vessels were cut into 5 millimeter rings and mounted on stirrups connected to transducers by which changes in isometric tension were recorded (model TO3C, Grass Instruments, Quincy, Mass.). Vessel rings were suspended in 20 mL of oxygenated Krebs buffer at 37° C. and sustained contractions were induced with 1 μM norepinephrine. The vessels were then relaxed in a dose-dependent fashion ([…] through 10^−5 M compound 8). In some experiments vessels were pretreated with methylene blue or […] hemoglobin to block relaxations.
Relaxations were attenuated by methylene blue (c) and hemoglobin (d) indicating an NO-related effect. (b) is a control with solvent.

C57B1/6 mice = assay: Murine cerebral ischemia model, intraluminal suture MCA occlusion; assay type: in vivo
Procedure: The intraluminal suture technique was used to produce a 2 hr occlusion of the middle cerebral artery (MCA), following the same protocol for focal cerebral ischemial reperfusion as published previously (Chen, et al., Neuroscience (1998) 86: 1121). However, here C57B1/6 mice were used instead of rats. […] To produce a neuroprotective concentration of compound 7, the loading dose was 100 mg/kg i.p. and the maintenance dose was 40 mg/kg i.p. every 12 hr. In each case, drug or vehicle control was initially administered 2 hr after MCA occlusion. […] The animals were sacrificed and analyzed with TTC staining 48 hr after MCA occlusion (Chen, et al., Neuroscience (1998) 86: 1121).

cerebrocortical neurons = assay: NMDA-induced apoptosis of cerebrocortical neurons (in vitro protection); assay type: cell-based
Procedure: Cerebrocortical cultures were exposed to 300 μM NMDA for 20 mm with or without various concentrations of compound 7. The next day cultures were analyzed by neuronal apoptosis as described in Example 19.
Under these conditions (300 μM NMDA exposure for 20 mm, followed by washout), neuronal apoptosis was monitored 24 hours later by propidium iodide uptake and morphology of fixed, permeabilized neurons, among other techniques (Bonfoco et al., Proc Natl Acad Sci USA (1995) 92: 7162). NMDA induced about 20% apoptosis of neurons, and that 25-100 μM compound 7 afforded protection from this damage (P<0.001, FIG. 5).

[2] = loading dose 20 mg/kg i.p., maintenance 1 mg/kg/12 hours; cited from earlier work
human albumin = human albumin (Homo sapiens, UniProt P02768); conditions: cited from earlier work
[3] = cited from earlier work
[4] = humans, 5 to 30 mg/day; cited from earlier work

Chain of human albumin (P02768 25-609): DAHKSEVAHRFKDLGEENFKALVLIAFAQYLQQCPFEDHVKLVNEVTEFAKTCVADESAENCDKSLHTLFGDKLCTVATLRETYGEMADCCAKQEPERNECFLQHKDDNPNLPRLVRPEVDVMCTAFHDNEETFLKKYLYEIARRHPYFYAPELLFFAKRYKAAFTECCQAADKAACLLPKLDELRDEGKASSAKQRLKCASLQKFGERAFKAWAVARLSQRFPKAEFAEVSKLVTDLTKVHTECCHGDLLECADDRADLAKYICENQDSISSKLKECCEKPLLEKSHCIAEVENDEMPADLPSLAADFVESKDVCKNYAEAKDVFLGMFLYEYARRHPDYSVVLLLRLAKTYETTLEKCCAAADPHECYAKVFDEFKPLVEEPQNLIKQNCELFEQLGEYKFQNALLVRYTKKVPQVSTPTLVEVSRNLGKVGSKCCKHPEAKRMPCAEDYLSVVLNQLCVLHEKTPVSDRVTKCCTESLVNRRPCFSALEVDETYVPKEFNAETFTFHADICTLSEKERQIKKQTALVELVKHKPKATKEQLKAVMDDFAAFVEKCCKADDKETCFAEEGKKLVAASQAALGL

1-amino-3,5-dimethyl-7-hydroxyadamantane hydrochloride [Compound 9]
effect on blood vessel, compared with solvent (EtOH) ([1]; FIG. 8, hydrochloride): either no effect or slight blood vessel contractions | effect on blood vessel, compared with solvent (EtOH) ([1]; FIG. 8, listed as compound 9, hydrochloride): either no effect or slight contractions of blood vessels

CC(=O)NC12CC3(C)CC(C)(CC(O)(C3)C1)C2 [Compound 3, 1-acetamido-3,5-dimethyl-7-hydroxyadamantane]
melting point: 194 to 195 °C

CC12CC3(C)CC(N)(C1)CC(O[N+](=O)[O-])(C2)C3.Cl [Compound 7, 1-amino-3,5-dimethyl-7-nitrateadamantane hydrochloride]
cerebral damage after stroke (C57B1/6 mice; 2 hr MCA occlusion, loading 100 mg/kg i.p., maintenance 40 mg/kg i.p. every 12 hr, first dose 2 hr after occlusion, TTC staining 48 hr, n=3, P<0.03 from control, P<0.05 from memantine): effective in decreasing cerebral damage after stroke | neuroprotection compared with memantine (C57B1/6 mice; memantine 20 mg/kg i.p. loading, 1 mg/kg/12 hours maintenance, compound 7 100 mg/kg i.p. loading, 40 mg/kg i.p. every 12 hr): more neuroprotective than memantine | concentration affording protection from NMDA-induced apoptosis (cerebrocortical neurons; 300 μM NMDA 20 mm, washout, apoptosis monitored 24 hours later, NMDA induced about 20% apoptosis, P<0.001): 25 to 100 µM | NMDA-induced neuronal apoptosis (cerebrocortical neurons; 300 μM NMDA for 20 mm, analysed next day, various concentrations, dose-dependent, P<0.001, n=3 cultures): largely prevented | effect on blood vessel at 10 μM ([1]; 10 μM concentration, FIG. 8): modest relaxation

CC(=O)NC12CC3(C)CC(C)(C1)CC(O[N+](=O)[O-])(C3)C2 [Compound 8, 1-acetamido-3,5-dimetbyl-7-nitrateadamantane]
effect on precontracted aortic vessel ([1]; endothelium-denuded rings, 1 μM norepinephrine): relaxes a precontracted aortic vessel in a dose-dependent fashion | relaxations after pretreatment with hemoglobin ([1]; vessels pretreated with hemoglobin): attenuated | relaxations after pretreatment with methylene blue ([1]; vessels pretreated with methylene blue): attenuated

CC12CC3(C)CC(O)(C1)CC(N(Cc1ccccc1)Cc1ccccc1)(C2)C3 [Compound 10, 1,1-dibenzylamino-3,5-dimethyl-7-hydroxy-adamantane]
effect on blood vessel, compared with solvent (EtOH) ([1]; FIG. 8): either no effect or slight contractions of blood vessels; also recorded: either no effect or slight blood vessel contractions

CC(=O)NC12CC3(C)CC(C)(CC(CO)(C3)C1)C2 [Compound 17, 1-Acetamido-3,5-dimethyl-7-hydroxymethyladamantane]
melting point: 152 to 153 °C

CC12CC3CC(C)(C1)CC(N)(C3)C2 [memantine, 1-amino-3,5-dimethyladamantane]
parenchymal levels in the brain [2]: 1 to 10 µM | bound to human albumin (human albumin): < 10% | average half-life, first therapeutically relevant phase ([3]; biphasic elimination, first phase): 4 to 9 h | average half-life, second phase ([3]; biphasic elimination, second phase): 40 to 65 h | elimination by the renal route ([3]; in vivo): 75%-90% | fecal excretion ([3]; in vivo): 10%-25% | mean CSF/serum ratio [4]: 0.52

From US20100137448A1, “Methods for Treating Neuropsychiatric Disorders with NMDA Receptor Antagonists” (priority 2000, published 2010)
